For 47 compounds, EC50 results are on record in patent US20190284149A1, “ARYL HYDROCARBON RECEPTOR MODULATOR” (ARIAGEN, INC., priority 2014, published 2019).

The structures appear in SMILES notation. pEC50: −log10 of the molar value.

The target in one test is T1, AhR receptor (Homo sapiens, UniProt P35869).
T1 construct: expression of native (Human Hepatoma Huh-7) AhR receptor reporter gene cells; endogenous in cells; host or cells: Human hepatoma Huh-7 reporter cells (firefly luciferase under receptor-specific response elements)
T1 sequence (P35869 11-848): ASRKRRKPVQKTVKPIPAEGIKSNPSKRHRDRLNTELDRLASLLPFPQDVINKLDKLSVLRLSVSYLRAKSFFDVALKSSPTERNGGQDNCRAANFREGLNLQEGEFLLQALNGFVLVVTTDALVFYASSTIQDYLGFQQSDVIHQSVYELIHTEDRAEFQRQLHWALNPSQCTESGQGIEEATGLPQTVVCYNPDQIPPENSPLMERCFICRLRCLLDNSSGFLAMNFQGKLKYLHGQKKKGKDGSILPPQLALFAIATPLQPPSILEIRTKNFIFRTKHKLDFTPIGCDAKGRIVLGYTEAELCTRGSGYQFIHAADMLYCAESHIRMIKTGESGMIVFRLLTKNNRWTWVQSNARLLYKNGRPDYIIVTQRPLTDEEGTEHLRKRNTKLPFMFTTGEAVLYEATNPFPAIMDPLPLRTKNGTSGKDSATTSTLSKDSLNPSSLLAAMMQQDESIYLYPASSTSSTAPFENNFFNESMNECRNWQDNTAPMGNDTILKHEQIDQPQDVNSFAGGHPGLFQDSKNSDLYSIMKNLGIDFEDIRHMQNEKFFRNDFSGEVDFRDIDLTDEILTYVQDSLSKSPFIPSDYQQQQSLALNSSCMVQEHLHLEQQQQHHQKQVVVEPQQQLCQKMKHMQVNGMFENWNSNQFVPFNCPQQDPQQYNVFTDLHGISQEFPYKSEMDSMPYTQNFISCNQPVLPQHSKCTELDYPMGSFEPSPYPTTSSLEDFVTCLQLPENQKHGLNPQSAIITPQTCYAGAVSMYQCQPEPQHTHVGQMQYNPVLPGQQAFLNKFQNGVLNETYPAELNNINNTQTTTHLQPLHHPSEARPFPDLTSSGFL
Description: AhR agonism assay (luciferase reporter gene cells). The format is cell-based.
Conditions: not given
How it is done: Assay Materials (plasmids): expression of native (Human Hepatoma Huh-7) AhR receptor reporter gene cells, the reporter vector includes functional firefly luciferase gene linked to upstream receptor-specific genetic response elements (GRE).
The AhR agonism assay comprises the following three steps:
1. Cell implantation: a suspension of AhR receptor cells was prepared in cell recovery medium (CRM; FBS containing 10% activated carbon). Then, the prepared suspension (100 μl) was dispensed into wells of a white 96-well culture plate.
2. Right before the beginning of the experiment, Master Stocks were diluted to “2× concentration” treatment media with appropriate compound screening media (CSM: FBS containing 10% activated carbon). The test compounds were subjected to gradient dilution with CSM medium containing 0.2% DMSO, so that the final concentration of DMSO in each experimental well for each treatment group was 0.1%. […] The experimental plate was placed in an incubator at 37° C. for 24 h.
3. Fluorescence detection and analysis: after completion of the incubation, the treatment media were discarded and 100 μL/well of luciferase detection reagent was added. The Ave RLU (average relative fluorescence intensity) of each well and the coefficient of variation for each experimental group were determined. The activity of AhR receptor with various concentrations of the test compounds was quantitatively determined using a ratio of Ave RLU^Test Cmpd of various concentrations of the test compounds in the experimental group to Ave RLU^Vehicle of the blank control group, and fold activation and EC50 were determined.
For data processing method, refer to J. Biomol.
In turn, `COC(=O)c1nsc(C(=O)c2c[nH]c3ccccc23)n1` [Compound 8] had a pEC50 of 5.00 to 6.00.
The same measure, in the same setting: then `CC(C)c1nc(C(=O)c2c[nH]c3ccccc23)cs1` [Compound 9], with 6.00 to 9.00.
For the compound `COC(=O)c1csc(C(=O)c2c[nH]c3ccccc23)c1` [Compound 15], the pEC50 was 4.00 to 5.00.
Same read-out and setting: to `COC(=O)c1ccc(C(=O)c2c[nH]c3ccccc23)nc1` [Compound 18] belongs 5.00 to 6.00; to `COC(=O)c1csc(C(=O)c2cn(CO)c3ccccc23)n1` [Compound 37], 6.00 to 9.00.

The test is the same for the next values; noted with them: Human Hepatoma Huh-7 AhR reporter gene cells, 24 h incubation at 37° C., 0.1% DMSO; read-out: EC50.
Turning to `COC(=O)c1csc(C(=O)c2cn(COC(=O)[C@@H](N)C(C)C)c3ccccc23)n1` [Compound 1-2], the pEC50 is 6.00 to 9.00.
As for `COC(=O)c1csc(C(=O)c2cn(COC(=O)[C@@H](N)C(C)(C)C)c3ccccc23)n1` [Compound 2-2], the pEC50 is 6.00 to 9.00.
As to `COC(=O)COCn1cc(C(=O)c2nc(C(=O)OC)cs2)c2ccccc21` [Compound 3], the pEC50 is 6.00 to 9.00.
As for `COC(=O)c1csc(C(=O)c2cn(C(=O)[C@@H](N)C(C)C)c3ccccc23)n1` [Compound 4-2], the pEC50 is 6.00 to 9.00.
Turning to `COCCOCCOCCOC(=O)n1cc(C(=O)c2nc(C(=O)OC)cs2)c2ccccc21` [Compound 5], the pEC50 is 6.00 to 9.00.
As for `COCCOCCOCCOCC(=O)OCn1cc(C(=O)c2nc(C(=O)OC)cs2)c2ccccc21` [Compound 6], the pEC50 is 6.00 to 9.00.
For `COCCOCCOCCOCC(=O)OCC(=O)OCn1cc(C(=O)c2nc(C(=O)OC)cs2)c2ccccc21` [Compound 7], the pEC50 is 6.00 to 9.00.
For the compound `CC(C)c1cnc(C(=O)c2c[nH]c3ccccc23)s1` [Compound 10], the pEC50 is 4.00 to 5.00.
Consider `COC(=O)c1ccc(C(=O)c2c[nH]c3ccccc23)n1C` [Compound 12], for which the pEC50 was 6.00 to 9.00.
For the compound `COC(=O)C1CSC(C(=O)c2c[nH]c3ccc(OC)cc23)=N1` (centres unmarked) [Compound 19-1], the pEC50 was 6.00 to 9.00.
On the same count and under the same terms, then `COC(=O)c1csc(C(=O)c2c[nH]c3ccc(OC)cc23)n1` [Compound 19-2], with 6.00 to 9.00; and `O=C(c1nc(-c2ccccn2)cs1)c1c[nH]c2ccccc12` [Compound 22], with 6.00 to 9.00.
Take `COC(=O)c1c[nH]c(C(=O)c2c[nH]c3ccccc23)n1` [Compound 23]: the pEC50 was 6.00 to 9.00.
Turning to `CO/N=C(/c1nc(C(=O)OC)cs1)c1c[nH]c2ccccc12` [Compound 25-1], the pEC50 was 5.00 to 6.00.
With `CO/N=C(\c1nc(C(=O)OC)cs1)c1c[nH]c2ccccc12` [Compound 25-2], the pEC50 was 5.00 to 6.00.
Turning to `COC(=O)c1csc(/C(=N/O)c2c[nH]c3ccccc23)n1` [Compound 26-1], the pEC50 was 5.00 to 6.00.
Same read-out and setting: then `COC(=O)c1csc(/C(=N\O)c2c[nH]c3ccccc23)n1` [Compound 26-2], with 5.00 to 6.00.
Take `COC(=O)CNC(=O)c1csc(C(=O)c2c[nH]c3ccccc23)n1` [Compound 27]: the pEC50 was 6.00 to 9.00.
With `COC(=O)c1csc(Cc2c[nH]c3ccccc23)n1` [Compound 28], the pEC50 is 4.00 to 5.00.
In the case of `N#Cc1csc(C(=O)c2c[nH]c3ccccc23)n1` [Compound 29], the pEC50 is 6.00 to 9.00.
With `COC(=O)[C@@H]1COC(c2csc(C(=O)c3c[nH]c4ccccc34)n2)=N1` [Compound 30-1], the pEC50 was 6.00 to 9.00.
`COC(=O)c1coc(-c2csc(C(=O)c3c[nH]c4ccccc34)n2)n1` [Compound 30-2]: the pEC50 is 6.00 to 9.00.
Consider `O=C(c1nc(C2=NCCS2)cs1)c1c[nH]c2ccccc12` [Compound 31-1], for which the pEC50 is 6.00 to 9.00.
Same read-out and setting: to `O=C(c1nc(-c2nccs2)cs1)c1c[nH]c2ccccc12` [Compound 31-2] belongs 6.00 to 9.00; to `COC(=O)C1CSC(c2csc(C(=O)c3c[nH]c4ccccc34)n2)=N1` (centres unmarked) [Compound 32-1], 6.00 to 9.00.
As for `COC(=O)c1csc(-c2csc(C(=O)c3c[nH]c4ccccc34)n2)n1` [Compound 32-2], the pEC50 is 6.00 to 9.00.
Turning to `O=C(c1nc(C2=NCCO2)cs1)c1c[nH]c2ccccc12` [Compound 33-1], the pEC50 was 6.00 to 9.00.
Still for that read-out and setting: to `O=C(c1nc(-c2ncco2)cs1)c1c[nH]c2ccccc12` [Compound 33-2] belongs 6.00 to 9.00.
With `COC(=O)c1nnc(C(=O)c2c[nH]c3ccccc23)o1` [Compound 34], the pEC50 is 5.00 to 6.00.
For the compound `O=C(c1nc(-c2nnn[nH]2)cs1)c1c[nH]c2ccccc12` [Compound 35], the pEC50 is 5.00 to 6.00.
For `O=C(c1nc(-c2nnc[nH]2)cs1)c1c[nH]c2ccccc12` [Compound 36], the pEC50 is 6.00 to 9.00.
Consider `COC(=O)c1csc(C(=O)c2cn(C3OC(COC(C)=O)C(OC(C)=O)C(OC(C)=O)C3OC(C)=O)c3ccccc23)n1` (centres unmarked) [Compound 38-1], for which the pEC50 was 6.00 to 9.00.
Take `COC(=O)c1csc(C(=O)c2cn(C3OC(COC(C)=O)C(OC(C)=O)C(OC(C)=O)C3OC(C)=O)c3ccccc23)n1` (centres unmarked) [Compound 38-2]: the pEC50 was 6.00 to 9.00.
Consider `COC(=O)c1csc(C(=O)c2cn(C3OC(COC(C)=O)C(O)C(O)C3O)c3ccccc23)n1` (centres unmarked) [Compound 38-3], for which the pEC50 is 6.00 to 9.00.
`COC(=O)c1csc(C(=O)c2cn(C3OC(CO)C(O)C(O)C3O)c3ccccc23)n1` (centres unmarked) [Compound 38-4]: the pEC50 was 6.00 to 9.00.
On to `O=C(c1nc(-c2cnccn2)cs1)c1c[nH]c2ccccc12` [Compound 39], for which the negative logarithm of the EC50 (pEC50) was 6.00 to 9.00.
In the case of `O=C(c1nc(-c2ccco2)cs1)c1c[nH]c2ccccc12` [Compound 40], the pEC50 is 6.00 to 9.00.
Still for that read-out and setting: to `O=C(c1nc(C2CC2)cs1)c1c[nH]c2ccccc12` [Compound 41] belongs 6.00 to 9.00.
Consider `CC(C)[C@H](NC(=O)OC(C)(C)C)C(=O)n1cc(C(=O)c2nc(-c3nccs3)cs2)c2ccccc21` [Compound 42-1], for which the pEC50 is 6.00 to 9.00.
`CC(C)[C@H](N)C(=O)n1cc(C(=O)c2nc(-c3nccs3)cs2)c2ccccc21` [Compound 42-2]: the pEC50 is 6.00 to 9.00.
Regarding `O=C(c1nc(-c2c[nH]cn2)cs1)c1c[nH]c2ccccc12` [Compound 43-2], the pEC50 is 6.00 to 9.00.
As to `Nc1nc(-c2csc(C(=O)c3c[nH]c4ccccc34)n2)cs1` [Compound 44], the negative logarithm of the EC50 (pEC50) was 6.00 to 9.00.
